Test results taken from patent US20230293535A1, “ERBB/BTK INHIBITORS” (Dizal (Jiangsu) Pharmaceutical Co., Ltd., priority 2018, published 2023).
Marks after values point to notes of the source that are not given here.

Legend:
[1] = target: T1, human EGFR exon 20 V769_D770insASV (Homo sapiens, UniProt P00533, INS769ASV); assay: EGFR Exon20 ASV insertion cellular phosphorylation inhibition (MSD pEGFR Y1068/total EGFR); assay type: cell-based; conditions: Ba/F3 EGFR ASV ins cells, 4 h compound, p-EGFR(Y1068)/total EGFR;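 note: electrochemiluminescent readout on an MSD SECTOR Imager, IL3-independent transduced cells in medium with 1% FBS, compound concentration series at 37 °C and 5% CO2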
T1 construct: expressed in transfected cells; host or cells: Ba/F3 (DSMZ ACC-300), lentiviral transduction, puromycin selection, IL3 depletion

[2] = target: T2, human Her2 exon 20 insertion mutation YVMA (Homo sapiens, UniProt P04626, INS775YVMA); assay: Her2 Exon 20 YVMA insertion cellular phosphorylation inhibition (MSD p-Her2 Y1248/total Her2); assay type: cell-based; conditions: Her2 YVMAins cells, 4 h compound;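 note: lentivirally transduced NIH-3T3 cells in 1% FBS medium, electrochemiluminescent MSD read-out, graded compound concentrations at 37 °C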
T2 construct: expressed in transfected cells; host or cells: NIH-3T3, lentiviral transduction, puromycin selection

WT EGFR = target: T3, WT EGFR (Homo sapiens, UniProt P00533); assay: WT EGFR cellular phosphorylation inhibition in A-431 (hEGF stimulated, MSD); assay type: cell-based; conditions: A431 cells, 4 h compound, then 100 ng/ml hEGF 10 min;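 note: electrochemiluminescence read-out of EGFR Tyr1068 phosphorylation expressed as ratio to total EGFR, cells kept in medium with 1% FBS, compounds tested as a concentration series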
T3 construct: host or cells: A-431

Ba/F3 EGFR NPH ins cells = assay: Cell proliferation, Ba/F3 EGFR NPH ins (CellTiter-Glo, 72 h); assay type: cell-based; conditions: Ba/F3 EGFR, 72 h, Ba/F3 EGFR NPH ins, 72 h proliferation; read-out: EGFR Exon20 NPH insertion GI50;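 note: IL3-independent cells carrying constitutively phosphorylated EGFR, compound dilution series, viable cells quantified by ATP luminescence, growth relative to DMSO wells after subtracting pre-dosing (day 0) baseline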
Experimental: Similar to recombinant human EGFR exon 20 H769_V770insASV Ba/F3 cell line, the recombinant human EGFR exon 20 H773_V774insNPH Ba/F3 cell line also expresses constitutively phosphorylated EGFR protein and proliferates in the absence of IL3, which could be used for in vitro PD and anti-proliferation assays.
(§1) WT or mutant cells were seeded in 384 well plates at appropriate concentrations with corresponding growth media supplemented with 10% FBS, for each experiment, identical plates were prepared in duplicates, and the plates were incubated overnight. On the next day, one of each duplicated plates was dosed with tested compounds at a series of concentrations, and another one of the duplicated plate was analysied for G0 value. The dosed plates were incubate for another 72 h at 37° C. with 5% CO2 and the number of viable cells in each well of the G0 plates or the dosed plates were measured by CellTiter-Glo® Luminescent Cell Viability Assay (Promega). This assay is a luminescent method for determining the number viable cells through measurement of cellular ATP concentration by detection of luciferase activity. Detection reagents (15 µl) was dispensed into per well, and the plates were incubate for 30 min at room temperature. Then, the luminescence in each well was measured using the Envision plate reader (PerkinElmer). The percentage of proliferation was calculated based on the formula: %Proliferation= 100 × (G3 value of sample well-Go value)/(G3 value of DMSO control-Go value).

[3] = test system: NCI-H1975 EGFR L858R/T790M cells; assay: Cell proliferation, NCI-H1975 EGFR L858R/T790M (CellTiter-Glo, 72 h); assay type: cell-based; conditions: Homo sapiens, NCI-H1975, 72 h, NCI-H1975, 72 h proliferation; read-out: EGFR L858R and T790M mutation GI50;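 note: viable cells quantified by luciferase-based ATP luminescence, proliferation expressed relative to DMSO-treated wells (100%) after subtracting a parallel plate read at the time of dosing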
Experimental: as §1

[4] = test system: Her2 exon 20 insertion YVMA transduced NIH-3T3 cell line; assay: Cell proliferation, Her2 YVMAins NIH-3T3 (CellTiter-Glo, 72 h); assay type: cell-based; conditions: Mus musculus, NIH3T3, 72 h, Her2 YVMAins cells, 72 h proliferation; read-out: Her2 Exon 20 YVMA insertion GI50;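 note: viable cells quantified by ATP luminescence, growth over a day-zero baseline plate expressed as percent of DMSO control growth, compound dilution series in 10% FBS medium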
WT EGFR cell line A-431 = assay: Cell proliferation, WT EGFR A431 (CellTiter-Glo, 72 h); assay type: cell-based; conditions: Homo sapiens, A-431, 72 h, A431, 72 h proliferation; read-out: EGFR WT A431 GI50;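 note: proliferation from a luminescent ATP viability signal, expressed as 100 × (treated minus time-zero plate) over (DMSO control minus time-zero plate), cells grown with 10% FBS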
Experimental: as §1

OCI-LY-10 cells = assay: BTK (wt) cell proliferation, OCI-LY-10 (CellTiter-Glo, 72 h); assay type: cell-based; conditions: Homo sapiens, OCI-Ly10, 72 h, OCI-LY-10 cells, 72 h, CellTiter-Glo; read-out: BTK WT OCI-LY-10 GI50;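 note: viable cells quantified via cellular ATP luminescence, proliferation given as percent of DMSO control after subtracting a duplicate plate read at time of dosing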
TMD-8 cells = assay: BTK (wt) cell proliferation, TMD-8 (CellTiter-Glo, 72 h); assay type: cell-based; conditions: Homo sapiens, TMD8, 72 h, TMD-8 cells, 72 h, CellTiter-Glo; read-out: BTK WT TMD-8 GI50;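 note: viable cells quantified by ATP-based luminescence, proliferation expressed as percent of DMSO control after subtracting a time-zero baseline plate read at dosing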
Experimental: (§2) OCI-LY-10 at 3,750 cells/well, TMD-8 and Ri-1 at 2,000 cells/well, and DB at 1,250 cells/well, respectively, were sorted into 384-well plates in RPMI1640 medium with 10% FBS. After overnight incubation, all cells were incubated with compound at a series of concentrations. Meanwhile, a duplicated plate of each cell line was prepared for measuring G0 value. The dosed plates were further incubated for 72 hours and the number of viable cells was measured by CellTiter-Glo® Luminescent Cell Viability Assay (Promega), a luminescent method for determining the number of viable cells through measurement of cellular ATP concentration using Envision plate reader (PerkinElmer). The percentage of proliferation was calculated as: % Proliferation = 100 × (G3 value of sample well - G0 value)/(G3 value of DMSO control - G0 value).

Ri-1 cells = assay: BTK (wt) cell proliferation, Ri-1 (CellTiter-Glo, 72 h); assay type: cell-based; conditions: Ri-1, 72 h, Ri-1 cells, 72 h, CellTiter-Glo; read-out: BTK WT Ri-1 GI50;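 note: viable cells quantified as cellular ATP luminescence, proliferation normalized to a time-zero plate and the DMSO control, compounds tested across a dilution series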
Experimental: as §2

BTK [5] = target: T4, BTK (Homo sapiens, UniProt Q06187); assay: BTK target site occupancy ELISA (PBMC); assay type: cell-based; conditions: BTK receptor occupancy
Experimental: (§3) An enzyme-linked immunosorbent assay (ELISA) method for the detection of free uninhibited Btk in mouse and human lysates. Human or mouse whole blood were incubated with compound for 2 hour at 37° C. Whole blood were lysed in ice-cold lysis buffer containing 50 mM Tris-HCl, pH 7.5, 150 mM NaCl, 1 mM EDTA,1% Triton X-100. […] Samples were transferred to a streptavidin-coated 96-well ELISA plate and mixed while shaking for 1 hour at room temperature. The α-Btk antibody (1:500; clone number D3H5, Cell signaling Technology, Danvers, MA, USA) was then added to the well and incubated for 1 hour at room temperature. After wash, goat α-rabbit-FW (1:5000 dilution in PBS+ 0.05% Tween-20 + 1% BSA) was added to each well and incubated for 1 h at room temperature. The ELISA was developed with addition of tetramethyl benzidine (TMB) followed by Stop Solution and read at OD 450 nm.

[6] = test system: NSCLC with EGFR Exon20ins; assay: Anti-tumor activity in platinum-pretreated NSCLC patients with EGFR Exon20 insertion mutations; assay type: in vivo, human
Source text: Compound 52 is a rationally designed, oral, EGFR Exon20 insertion (Exon20ins) inhibitor, with wild-type EGFR selectivity. […] Compound 52 is currently in late stage development with multiple pivotal studies ongoing globally as ≥ 2nd line treatment after platinum-containing chemotherapies and 1st line for treatment naive patients. Results from multicenter, multi-arm, global studies are presented herein.
A total of 119 evaluable platinum-pretreated NSCLC patients with EGFR Exon20ins were included in efficacy set.

[7] = test system: NSCLC with EGFR sensitizing, double or uncommon mutation; assay: Anti-tumor activity in NSCLC patients with EGFR mutation beyond Exon20ins; assay type: in vivo, human; conditions: 50-400 mg once daily oral
Experimental: Compound 52 was explored at 50 mg, 100 mg, 200 mg, 300 mg and 400 mg once daily with oral administration in 12 non-small cell lung cancer (NSCLC) patients with EGFR sensitizing mutation (L858R or 19del), sensitizing (L858R or 19del) and T790M double mutation (double mutation) or less common non-resistant mutation (uncommon mutation, including Gly719Xaa, Leu861Gln, or Ser768Ile mutation). […] In 2 patients with uncommon mutation, 1 SD and 1 PD was observed after Compound 52 treatment.

[8] = test system: NSCLC with EGFR Exon20ins; assay: Anti-tumor activity in platinum-pretreated NSCLC patients with EGFR Exon20 insertion mutations; assay type: in vivo, human; remark: listed apart in the source
BTK [9] = target: T4, BTK; assay: BTK target site occupancy ELISA (Ramos); assay type: cell-based; parameters: endogenous in cells; host or cells: Ramos; conditions: BTK receptor occupancy, read-out: Occupancy (Romas) IC50
Experimental: as §3

[10] = In vitro rat hepatocytes clearance assay; conditions: male, rat, cryopreserved rat hepatocytes (suspension), rat hepatocytes Clint (µL/min/10^6cells), 1 µM-range incubation up to 100 min
[11] = In vitro human hepatocytes clearance assay; conditions: both, human, cryopreserved human hepatocytes (suspension), human hepatocytes Clint (µL/min/10^6cells), mixed gender human hepatocytes, incubation up to 100 min
Experimental: The protocol for rat/human hepatocytes metabolic stability assay is employed to determine the clearance of the compounds of the present disclosure in vitro.
Rat hepatocytes in male gender and human hepatocytes in mixed gender were obtained from commercial vendors (e.g., BioreclamationIVT) and stored at -150° C. prior to use. 10 mM stock solutions of tested compounds were prepared in DMSO. Thawing medium and supplement incubation medium (serum-free) were placed in a 37° C. water bath for at least 15 minutes prior to use. Stock solutions were diluted to 100 µM by combining 198 µL acetonitrile and 2 µL of 10 mM stock solution.
Vials of cryopreserved hepatocytes were removed from storage, ensured that vials remain at cryogenic temperatures. The vials were thawed in a 37° C. water bath with gently shaking. Vials were kept in water bath until all ice crystals had dissolved and were no longer visible. Vials were sprayed with 70% ethanol before being transferred to a biosafety cabinet. And then the contents were poured into the 50 mL thawing medium conical tube. Vials were centrifuged at 100 g for 10 minutes at room temperature.
Cell viability and density were counted using a Trypan Blue exclusion, and then cells were diluted with serum-free incubation medium to a working cell density of 1 × 10^6 viable cells/ml. […] The inactivated hepatocytes were used to prepare negative samples, which were used to exclude the misleading factor that resulted from instability of chemical itself.
Aliquots of 247.5 µL hepatocytes were dispensed into each well of a 96-well non-coated plate. The plate was placed in the incubator on an orbital shaker for approximately 10 minutes. Aliquots of 2.5 µL of the 100 µM test compounds were added into respective wells of the non-coated 96-well plate to start the reaction. This assay was performed in duplicate. The plate was incubated in the incubator on an orbital shaker for the designed time points. […] Samples were centrifuges for 20 minutes at 4000 g and aliquots of 100 µL of the supernatants were used for LC-MS/MS analysis for measurement of test compounds
In vitro hepatocyte clearance was estimated based on determination of elimination half-life (T½) of compounds disappearance from their initial concentrations. Peak area ratios of each compound (test or control) to IS was calculated. Ln (%Control) versus Incubation Time (min) curve was plotted, and the slope of a linear fitting line was calculated.

[12] = 50 mg (N = 3), post platinum-based chemotherapy
[13] = 100 mg (N = 2), post platinum-based chemotherapy
[14] = 200 mg (N = 21), post platinum-based chemotherapy
[15] = 300 mg (N = 84), post platinum-based chemotherapy
[16] = 400 mg (N = 9), post platinum-based chemotherapy
[17] = Total (N = 119), post platinum-based chemotherapy
[18] = 2 patients with uncommon mutation
[19] = 4 NSCLC patients with EGFR sensitizing mutation
[20] = 5 NSCLC patients with EGFR double mutation

T1 sequence (P00533 with tags, fused parts or gaps INS769ASV): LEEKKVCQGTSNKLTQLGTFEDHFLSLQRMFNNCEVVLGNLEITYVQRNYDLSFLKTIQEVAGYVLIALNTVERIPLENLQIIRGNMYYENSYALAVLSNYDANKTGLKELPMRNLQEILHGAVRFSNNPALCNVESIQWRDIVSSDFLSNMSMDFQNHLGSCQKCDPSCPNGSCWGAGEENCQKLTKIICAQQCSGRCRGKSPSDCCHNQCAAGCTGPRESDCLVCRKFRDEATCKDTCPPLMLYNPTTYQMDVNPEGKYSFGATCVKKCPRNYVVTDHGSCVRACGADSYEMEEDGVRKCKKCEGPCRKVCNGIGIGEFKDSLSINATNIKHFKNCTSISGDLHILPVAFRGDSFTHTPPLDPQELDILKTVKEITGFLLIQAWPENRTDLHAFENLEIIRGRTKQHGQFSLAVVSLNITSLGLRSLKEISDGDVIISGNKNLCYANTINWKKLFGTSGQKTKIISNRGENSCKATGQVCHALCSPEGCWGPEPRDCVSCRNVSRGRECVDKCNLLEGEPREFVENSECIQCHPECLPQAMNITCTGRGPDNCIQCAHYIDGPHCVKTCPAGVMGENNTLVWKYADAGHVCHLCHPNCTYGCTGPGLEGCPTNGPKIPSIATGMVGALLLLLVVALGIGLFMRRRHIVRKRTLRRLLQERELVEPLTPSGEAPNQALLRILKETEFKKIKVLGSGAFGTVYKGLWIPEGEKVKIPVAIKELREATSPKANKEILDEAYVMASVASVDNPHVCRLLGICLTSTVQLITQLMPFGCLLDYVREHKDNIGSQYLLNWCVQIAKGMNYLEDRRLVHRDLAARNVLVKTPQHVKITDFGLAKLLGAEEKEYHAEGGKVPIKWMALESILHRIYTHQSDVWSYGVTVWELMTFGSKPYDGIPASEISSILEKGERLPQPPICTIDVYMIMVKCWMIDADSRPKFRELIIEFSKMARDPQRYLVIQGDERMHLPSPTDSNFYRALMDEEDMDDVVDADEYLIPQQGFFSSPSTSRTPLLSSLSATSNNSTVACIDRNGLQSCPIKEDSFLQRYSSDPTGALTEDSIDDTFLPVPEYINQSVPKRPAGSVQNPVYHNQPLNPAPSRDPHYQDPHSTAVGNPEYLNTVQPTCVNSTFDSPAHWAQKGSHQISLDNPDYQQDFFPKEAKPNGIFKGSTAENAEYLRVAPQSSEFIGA
T4 sequence (Q06187 whole entry): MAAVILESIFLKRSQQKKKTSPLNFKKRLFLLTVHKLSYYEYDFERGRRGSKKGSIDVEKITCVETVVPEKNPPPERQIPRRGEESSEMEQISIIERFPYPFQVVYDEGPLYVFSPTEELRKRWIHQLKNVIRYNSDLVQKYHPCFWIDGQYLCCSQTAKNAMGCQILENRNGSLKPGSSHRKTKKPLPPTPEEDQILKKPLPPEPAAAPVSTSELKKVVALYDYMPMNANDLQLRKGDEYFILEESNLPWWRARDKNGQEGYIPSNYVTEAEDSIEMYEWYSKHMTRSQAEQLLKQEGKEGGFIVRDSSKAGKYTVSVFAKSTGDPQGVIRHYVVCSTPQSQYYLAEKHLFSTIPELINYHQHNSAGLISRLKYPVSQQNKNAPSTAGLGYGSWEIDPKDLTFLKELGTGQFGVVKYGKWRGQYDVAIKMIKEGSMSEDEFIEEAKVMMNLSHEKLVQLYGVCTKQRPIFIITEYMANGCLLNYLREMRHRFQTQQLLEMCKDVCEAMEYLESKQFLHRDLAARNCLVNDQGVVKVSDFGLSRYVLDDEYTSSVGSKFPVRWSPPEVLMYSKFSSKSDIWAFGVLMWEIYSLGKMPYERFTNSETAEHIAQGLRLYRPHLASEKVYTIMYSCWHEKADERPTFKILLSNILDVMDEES
T3 sequence (P00533 25-1210): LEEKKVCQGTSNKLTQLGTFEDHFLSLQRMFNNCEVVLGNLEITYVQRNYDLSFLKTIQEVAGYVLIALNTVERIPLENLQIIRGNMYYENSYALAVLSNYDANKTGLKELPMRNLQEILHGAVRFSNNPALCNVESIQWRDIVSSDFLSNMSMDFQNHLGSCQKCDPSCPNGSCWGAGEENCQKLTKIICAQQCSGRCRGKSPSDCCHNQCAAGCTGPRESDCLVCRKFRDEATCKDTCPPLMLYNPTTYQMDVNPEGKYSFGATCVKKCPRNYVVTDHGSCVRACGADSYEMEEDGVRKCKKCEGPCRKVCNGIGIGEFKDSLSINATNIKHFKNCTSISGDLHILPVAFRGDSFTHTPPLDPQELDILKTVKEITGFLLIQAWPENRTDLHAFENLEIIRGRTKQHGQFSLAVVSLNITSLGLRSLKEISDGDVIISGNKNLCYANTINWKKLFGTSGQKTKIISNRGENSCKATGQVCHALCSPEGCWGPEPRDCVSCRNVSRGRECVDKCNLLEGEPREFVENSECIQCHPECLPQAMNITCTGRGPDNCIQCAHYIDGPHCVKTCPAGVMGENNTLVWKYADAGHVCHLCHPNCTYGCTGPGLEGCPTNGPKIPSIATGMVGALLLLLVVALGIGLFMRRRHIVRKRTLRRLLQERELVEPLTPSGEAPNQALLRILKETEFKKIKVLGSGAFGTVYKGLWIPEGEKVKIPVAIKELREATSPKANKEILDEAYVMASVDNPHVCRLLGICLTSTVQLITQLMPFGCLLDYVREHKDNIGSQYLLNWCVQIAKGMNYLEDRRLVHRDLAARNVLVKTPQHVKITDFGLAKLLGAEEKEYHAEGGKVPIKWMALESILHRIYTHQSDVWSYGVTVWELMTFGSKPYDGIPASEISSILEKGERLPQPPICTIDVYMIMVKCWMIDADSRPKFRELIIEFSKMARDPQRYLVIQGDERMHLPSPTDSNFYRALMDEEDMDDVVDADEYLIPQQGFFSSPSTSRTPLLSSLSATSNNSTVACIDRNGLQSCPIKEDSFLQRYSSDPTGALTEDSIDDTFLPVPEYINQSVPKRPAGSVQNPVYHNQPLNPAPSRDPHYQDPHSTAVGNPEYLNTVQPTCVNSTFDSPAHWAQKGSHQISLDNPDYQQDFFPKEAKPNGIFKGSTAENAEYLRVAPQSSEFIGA
T2 sequence (P04626 with tags, fused parts or gaps INS775YVMA): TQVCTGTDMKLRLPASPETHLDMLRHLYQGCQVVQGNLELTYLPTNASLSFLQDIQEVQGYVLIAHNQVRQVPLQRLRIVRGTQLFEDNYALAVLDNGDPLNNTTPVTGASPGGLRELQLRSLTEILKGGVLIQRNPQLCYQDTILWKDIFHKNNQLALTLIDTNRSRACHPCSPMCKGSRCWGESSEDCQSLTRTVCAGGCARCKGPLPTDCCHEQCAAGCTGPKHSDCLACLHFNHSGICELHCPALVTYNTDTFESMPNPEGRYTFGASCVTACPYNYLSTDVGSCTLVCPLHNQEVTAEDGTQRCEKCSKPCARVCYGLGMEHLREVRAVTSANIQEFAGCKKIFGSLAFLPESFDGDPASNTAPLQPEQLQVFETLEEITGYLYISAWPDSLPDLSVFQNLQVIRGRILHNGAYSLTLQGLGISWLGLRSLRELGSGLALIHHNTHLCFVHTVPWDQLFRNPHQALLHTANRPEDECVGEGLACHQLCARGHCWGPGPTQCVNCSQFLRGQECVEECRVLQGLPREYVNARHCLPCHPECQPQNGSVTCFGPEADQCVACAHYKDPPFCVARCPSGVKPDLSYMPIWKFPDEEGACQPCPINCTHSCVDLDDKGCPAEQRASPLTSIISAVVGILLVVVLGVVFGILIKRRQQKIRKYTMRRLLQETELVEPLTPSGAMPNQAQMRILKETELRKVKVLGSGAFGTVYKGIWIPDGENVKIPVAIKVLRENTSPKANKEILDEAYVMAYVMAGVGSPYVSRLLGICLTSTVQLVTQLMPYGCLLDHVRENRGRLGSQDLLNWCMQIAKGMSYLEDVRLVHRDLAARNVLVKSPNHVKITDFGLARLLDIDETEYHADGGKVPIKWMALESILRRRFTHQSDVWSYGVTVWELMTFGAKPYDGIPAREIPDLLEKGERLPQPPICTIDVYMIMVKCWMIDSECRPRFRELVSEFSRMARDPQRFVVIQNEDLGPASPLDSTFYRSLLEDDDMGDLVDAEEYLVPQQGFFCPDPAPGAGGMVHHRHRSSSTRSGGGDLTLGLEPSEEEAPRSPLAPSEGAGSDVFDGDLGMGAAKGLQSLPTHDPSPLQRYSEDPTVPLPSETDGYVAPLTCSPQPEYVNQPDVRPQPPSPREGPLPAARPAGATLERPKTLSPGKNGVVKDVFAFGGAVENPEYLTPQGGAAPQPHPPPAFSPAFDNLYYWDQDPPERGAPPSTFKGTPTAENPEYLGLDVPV

Structure (SMILES): C=CC(=O)Nc1cc(Nc2nccc(Nc3cc(Cl)c(F)cc3C(C)(C)O)n2)c(OC)cc1N1CC[C@@H](N(C)C)C1 [Compound 52, (R)-N-(5-(4-(5-chloro-4-fluoro-2-(2-hydroxypropan-2-yl)phenylamino)pyrimidin-2-ylamino)-2-(3-(dimethylamino)pyrrolidin-1-yl)-4-methoxyphenyl)a crylamide]
- IC50 [1]: 20.4 nM
- IC50 [2]: 7.5 nM
- IC50 (WT EGFR): 80.4 nM
- GI50 (Ba/F3 EGFR NPH ins cells): 60.4 nM
- GI50 [3]: 3.3 nM
- GI50 [4]: 101 nM
- GI50 (WT EGFR cell line A-431): 47.1 nM
- GI50 (OCI-LY-10 cells): 3.2 nM
- GI50 (TMD-8 cells): 5.8 nM
- GI50 (Ri-1 cells): 51.3 nM
- IC50 (BTK [5]): 2.9 nM
- Best Objective Response Rate, PD (progressive disease) [6, 12]: 1 (33.3) n(%)
- Best Objective Response Rate, PR [6, 12]: 0 (0.0) n(%)
- Best Objective Response Rate, PR, confirmed [6, 12]: 0 (0.0) n(%)
- Best Objective Response Rate, PR, pending confirmation [6, 12]: 0 (0.0) n(%)
- Best Objective Response Rate, SD (stable disease) [6, 12]: 2 (66.7) n(%)
- Best Objective Response Rate, PD (progressive disease) [6, 13]: 0 (0.0) n(%)
- Best Objective Response Rate, PR [6, 13]: 1 (50.0) n(%)
- Best Objective Response Rate, PR, confirmed [6, 13]: 1 (50.0) n(%)
- Best Objective Response Rate, PR, pending confirmation [6, 13]: 0 (0.0) n(%)
- Best Objective Response Rate, SD (stable disease) [6, 13]: 1 (50.0) n(%)
- Best Objective Response Rate, PD (progressive disease) [6, 14]: 3 (14.3) n(%)
- Best Objective Response Rate, PR [6, 14]: 10 (47.6) n(%)
- Best Objective Response Rate, PR, confirmed [6, 14]: 7 (33.3) n(%)
- Best Objective Response Rate, PR, pending confirmation [6, 14]: 2 (9.5)* n(%)
- Best Objective Response Rate, SD (stable disease) [6, 14]: 9 (42.9) n(%)
- Best Objective Response Rate, PD (progressive disease) [6, 15]: 9 (10.7) n(%)
- Best Objective Response Rate, PR, confirmed [6, 15]: 32 (38.1) n(%)
- Best Objective Response Rate, PR, pending confirmation [6, 15]: 8 (9.5)* n(%)
- Best Objective Response Rate, SD (stable disease) [6, 15]: 35 (41.7) n(%)
- best Overall Response Rate (ORR) ([6]; 300 mg once daily, 44/84 patients, post platinum-based chemotherapy): 52.4%
- Best Objective Response Rate, PD (progressive disease) [6, 16]: 2 (22.2) n(%)
- Best Objective Response Rate, PR [6, 16]: 2 (22.2) n(%)
- Best Objective Response Rate, PR, confirmed [6, 16]: 2 (22.2) n(%)
- Best Objective Response Rate, PR, pending confirmation [6, 16]: 0 (0.0) n(%)
- Best Objective Response Rate, SD (stable disease) [6, 16]: 5 (55.6) n(%)
- Best Objective Response Rate, PD (progressive disease) [6, 17]: 15 (12.6) n(%)
- Best Objective Response Rate, PR [6, 17]: 57 (47.9) n(%)
- Best Objective Response Rate, PR, confirmed [6, 17]: 42 (35.3) n(%)
- Best Objective Response Rate, PR, pending confirmation [6, 17]: 10 (8.4)* n(%)
- Best Objective Response Rate, SD (stable disease) [6, 17]: 52 (43.7) n(%)
- ORR for patients with baseline brain metastasis ([6]; across studies, 11/25 patients): 44%
- first response observed after treatment ([6]; single patient, stage IV NSCLC with CNS metastasis, 300 mg once daily): 6 weeks
- patients with PD [7, 18]: 1
- patients with SD [7, 18]: 1
- patients with PD [7, 19]: 1
- patients with SD [7, 19]: 2
- patients with best response of PR [7, 19]: 1
- patients with best response of partial response (PR) [7, 20]: 2
- patients with progressive disease (PD) [7, 20]: 2
- anti-tumor activity in earlier clinical studies [8]: Significant anti-tumor activities
- IC50 (BTK [9]): 0.6 nM
- hepatocyte CLint at 1 µM [10]: 13.3 µL/min/1e6 cells
- hepatocyte CLint at 1 µM [11]: 3.29 µL/min/1e6 cells
